The results in this text go back to patent publication US11178872B2 (dated 2021).

Usually melting point stands for the temperature, or range, at which the solid turns liquid. The compound `N#Cc1cc(C(=O)N2CCC(O)(c3ccc(Cl)cc3)CC2)c(C(F)F)nc1-c1ccc(C(F)(F)F)cc1` registered a melting point of 200 °C.
Consider `Cn1cc(-c2nc(C(F)F)c(C(=O)N3CCC(O)(c4ccc(Cl)cc4)CC3)cc2C#N)cn1`, for which the melting point came out at 220 °C.
Next, `N#Cc1cc(C(=O)N2CCC(O)(c3ccccc3Cl)C2)c(C(F)F)nc1-c1ccc(C(F)(F)F)cc1` (centres unmarked): 191 to 195 °C.
As for `N#Cc1cc(C(=O)N2CCC(c3noc(O)n3)C2)c(C(F)F)nc1-c1ccc(C(F)(F)F)cc1` (centres unmarked), the figure is 181 to 184 °C.
Next, `CO[C@@]1(c2ccc(C)cc2)[C@@H]2CC[C@H]1CN(C(=O)c1cc(C#N)c(-c3ccc(C(F)(F)F)cc3)nc1C(F)F)C2`: 228 to 230 °C; `Cc1nc(C2CCN(C(=O)c3cc(C#N)c(-c4ccc(Cl)s4)nc3C)CC2)no1`: 69 to 71 °C.
In the case of `Cc1nc(C2CCN(C(=O)c3cc(C#N)c(-c4ccc(C(F)(F)F)cn4)nc3C)CC2)no1`, the melting point lay within 60 to 62 °C.
`N#Cc1cc(C(=O)N2CCC(O)(c3ccc(Cl)cc3)CC2)c(C(F)F)nc1-c1ccc(C(F)(F)F)nc1` gave a melting point of 177 to 180 °C.
Next, `N#Cc1cc(C(=O)N2CCC(O)(c3ccc(Cl)cc3)CC2)c(C(F)F)nc1-c1ccnc(F)c1`: 150 to 155 °C.
Compound `CCCn1cc(-c2nc(C(F)F)c(C(=O)N3CCC(O)(c4ccc(Cl)cc4)CC3)cc2C#N)cn1` displayed a melting point of 193 to 195 °C.
As for `N#Cc1cc(C(=O)N2CCC(O)(c3ccc(Cl)cc3)CC2)c(C(F)F)nc1-c1ccc(Cl)cn1`, the figure is 175 to 177 °C.
